The source of these data is patent publication EP4741392A1, “1H-PYRAZOLO[4,3-C]PYRIDINE COMPOUND, AND COMPOSITION THEREOF AND USE THEREOF” (Shenzhen TargetRx Co., Ltd., priority 2023, dated 2025).

The IC50 is the point on the concentration scale where inhibition reaches its midpoint.

What all share (assay): Kinase activity inhibition assay (HTRF TK Kit), selectivity
Type in all cases: biochemical
(Time-resolved FRET reads energy transfer from a long-lived donor to a nearby acceptor.)

One experiment has as its target T1, TEC (Homo sapiens, UniProt P42680).
T1 construct: purchased Carna 08-182
T1 sequence (P42680 1-631): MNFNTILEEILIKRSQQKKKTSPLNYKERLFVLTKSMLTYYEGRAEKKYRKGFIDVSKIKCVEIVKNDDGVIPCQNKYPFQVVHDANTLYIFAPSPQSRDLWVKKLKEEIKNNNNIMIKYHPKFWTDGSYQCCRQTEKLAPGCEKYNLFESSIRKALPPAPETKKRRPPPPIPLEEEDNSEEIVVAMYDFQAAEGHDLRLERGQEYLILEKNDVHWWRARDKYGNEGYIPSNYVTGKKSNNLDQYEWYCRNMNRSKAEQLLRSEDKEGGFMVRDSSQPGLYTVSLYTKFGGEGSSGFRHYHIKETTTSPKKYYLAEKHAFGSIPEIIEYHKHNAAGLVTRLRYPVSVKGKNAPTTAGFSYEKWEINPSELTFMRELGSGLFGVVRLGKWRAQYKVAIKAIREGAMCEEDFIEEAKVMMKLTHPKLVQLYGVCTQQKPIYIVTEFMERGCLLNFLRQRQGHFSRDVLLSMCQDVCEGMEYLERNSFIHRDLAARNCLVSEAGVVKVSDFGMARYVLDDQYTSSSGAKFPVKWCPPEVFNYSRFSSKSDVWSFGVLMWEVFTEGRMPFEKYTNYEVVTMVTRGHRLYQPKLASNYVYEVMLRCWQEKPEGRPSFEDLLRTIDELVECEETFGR
Summed up: (§1)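 IC50 was fitted (four-parameter logistic) from % inhibition computed from the 665/620 nm TR-FRET ratio, with no-kinase wells as blank and DMSO-plus-kinase wells as positive control. Compound, substrate/ATP and enzyme were combined on ice and reacted at room temperature. Biotin-substrate phosphorylation was detected with cryptate antibody/XL665 after 1 h.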

A further experiment deals with T2, ITK (Homo sapiens, UniProt Q08881).
T2 construct: purchased Carna 08-181
T2 sequence (Q08881 1-620): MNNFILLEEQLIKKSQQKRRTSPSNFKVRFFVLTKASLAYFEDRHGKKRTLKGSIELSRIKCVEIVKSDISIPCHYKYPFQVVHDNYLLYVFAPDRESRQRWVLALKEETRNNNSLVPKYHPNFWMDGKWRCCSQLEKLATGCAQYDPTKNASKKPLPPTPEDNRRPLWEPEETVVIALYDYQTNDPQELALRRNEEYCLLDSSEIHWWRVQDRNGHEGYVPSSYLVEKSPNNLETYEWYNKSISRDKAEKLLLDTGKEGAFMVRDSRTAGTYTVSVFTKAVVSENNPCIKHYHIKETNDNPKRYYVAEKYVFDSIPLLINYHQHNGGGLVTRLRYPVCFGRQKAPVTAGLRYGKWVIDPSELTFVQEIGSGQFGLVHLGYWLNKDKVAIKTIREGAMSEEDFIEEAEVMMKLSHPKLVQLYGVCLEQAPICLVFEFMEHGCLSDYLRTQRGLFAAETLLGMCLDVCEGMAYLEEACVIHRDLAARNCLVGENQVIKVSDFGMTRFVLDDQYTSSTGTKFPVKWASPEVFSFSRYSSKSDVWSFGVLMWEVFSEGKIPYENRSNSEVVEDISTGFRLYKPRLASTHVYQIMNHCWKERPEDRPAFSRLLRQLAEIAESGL
Summed up: as §1

For the next experiment, the target named is T3, EGFR (Homo sapiens, UniProt P00533).
T3 construct: purchased Carna 08-115
Summed up:
as §1

With `COc1ccc(F)cc1C(=O)NCc1ccc(-c2ncc(-c3ccc4c(n3)nc3n4CCOC3)c3[nH]nc(N)c23)cc1` [Example 102, N-(4-(3-amino-7-(6,7-dihydro-9H-pyrido[2',3':4,5]imidazo[2,1-c][1,4]oxazin-2-yl)-1H-pyrazolo[4,3-c]pyridin-4-yl)benzyl)-5-fluoro-2-methoxybenzamide], the concentration for half-maximal inhibition (IC50) at TEC was above 500 nM; at ITK it was above 500 nM; at EGFR it was 50 to 500 nM.

In the case of `COc1ccc(F)cc1C(=O)NCc1ccc(-c2ncc(-c3ccc4c(n3)nc3n4C(C)COC3)c3[nH]nc(N)c23)cc1` (stereo not drawn) [Example 103, N-(4-(3-amino-7-(6-methyl-6,7-dihydro-9H-pyrido[2',3':4,5]imidazo[2,1-c][1,4]oxazin-2-yl)-1H-pyrazolo[4,3-c]pyridin-4-yl)benzyl)-5-fluoro-2-methoxybenzamide], the IC50 at TEC was above 500 nM; on ITK, above 500 nM; at EGFR, 50 to 500 nM.

Consider `COc1ccc(F)cc1C(=O)NCc1ccc(-c2ncc(-c3cccnc3)c3[nH]nc(N)c23)cc1` [Example 105, N-(4-(3-amino-7-(pyridin-3-yl)-1H-pyrazolo[4,3-c]pyridin-4-yl)benzyl)-5-fluoro-2-methoxybenzamide], for which the half-inhibitory concentration (IC50) at TEC, at ITK and at EGFR was above 500 nM each time.

For the molecule `COc1ccc(F)cc1C(=O)NCc1ccc(-c2ncc(-c3ccncc3)c3[nH]nc(N)c23)cc1` [Example 106, N-(4-(3-amino-7-(pyridin-4-yl)-1H-pyrazolo[4,3-c]pyridin-4-yl)benzyl)-5-fluoro-2-methoxybenzamide], the IC50 at TEC, at ITK and at EGFR was above 500 nM each time.

For the molecule `COc1ccc(F)cc1C(=O)NCc1ccc(-c2nc(C3CCOCC3)cc3[nH]nc(N)c23)cc1` [Example 115, N-(4-(3-amino-6-(tetrahydro-2H-pyran-4-yl)-1H-pyrazolo[4,3-c]pyridin-4-yl)benzyl)-5-fluoro-2-methoxybenzamide], the IC50 at TEC is 50 to 500 nM; at ITK it was above 500 nM; on EGFR, 50 to 500 nM.

As to `COc1ccc(F)cc1C(=O)NCc1ccc(-c2nc([C@H]3CC[C@H](CO)CC3)cc3[nH]nc(N)c23)cc1` [Example 117, N-(4-(3-amino-6-((1r,4r)-4-(hydroxymethyl)cyclohexyl)-1H-pyrazolo[4,3-c]pyridin-4-yl)benzyl)-5-fluoro-2-methoxybenzamide], the IC50 at TEC was 50 to 500 nM; on ITK, above 500 nM; on EGFR it was 5 to 50 nM.

On to “N-(4-(3-amino-7-(1-(difluoromethyl)-1H-pyrazol-3-yl)-1H-pyrazolo[4,3-c]pyridin-4-yl)benzyl)-5-fluoro-2-methoxybenzamide [Example 29]”, for which the IC50 at TEC lay in the range of 5 to 50 nM; on ITK, 50 to 500 nM; on EGFR, 5 to 50 nM.
